Experimental data taken from patent publication US5798447A, “Antibodies specific for D-myo-inositol 1, 4, 5-trisphosphate and the enzyme-linked immunosorbent assay of D-myo-inositol 1, 4, 5-trisphosphate” (The Board of Governors for Higher Education State of Rhode …, priority 1996, dated 1998).
“Also recorded” adds a separate entry of the source.

Key:
[1] = system: affinity-purified Ins(1,4,5)P3-specific antibodies; test: Inhibition of binding of affinity-purified antibodies to immobilized Ins(1,4,5)P3 by ions; set-up: species or system New Zealand White rabbit; conditions: for IC50: affinity-purified antibodies, preincubation 30 minutes, room temperature, read-out: IC50 for inhibition of antibody binding to immobilized Ins(1,4,5)P3; for inhibition of / interference with antibody binding to immobilized Ins(1,4,5)P3: concentration not stated with the result, or 'high concentrations'; for inhibition of antibody recognition by cations: concentrations up to 100 mM; for interference with antibody binding to immobilized Ins(1,4,5)P3: up to 0.3 mM
Procedure: (§1) The presence of anti-Ins(1,4,5)P3 antibodies in rabbit serum was detected by an ELISA. Ins(1,4,5)P3 (hapten) was covalently attached to microtiter plates through a C-6 linker by adding 6-O-(ω-Aminohexyl)-D-myo-inositol 1,4,5-triphosphate (1) (1.25 μg in 0.1 ml of phosphate buffered saline (PBS) per well) to maleic anhydride-activated polystyrene plates (Pierce). This anhydride-activated plate allows direct coupling of amine-bearing molecules to the well surface, (Pierce Chemical Co. Instruction 15110X (1992) REACTI-BIND™ Maleic Anhydride Activated Polystyrene Plates), and obviates the need for a carrier protein to immobilize haptens. The plate was incubated at room temperature overnight, and each well was blocked by adding 0.12 ml of SUPERBLOCK ™ blocking solution in PBS (Pierce). After 10 minutes at room temperature, the plate was washed twice with 0.05% Tween-20 in 10 mM Tris/HCl containing 0.85% NaCl, pH 7.2 (TBS), followed by TBS buffer twice. Rabbit antiserum (antibodies) diluted in TBS buffer containing 0.1% gelatin was added (95 μl per well). The plate was incubated at 37° C. for 2 hours, and washed as stated above. Specific antibody binding was assessed by adding goat anti-rabbit IgG-HRP conjugate (1/200 dilution in TBS containing 0.1% gelatin; 90 μl per well), and the plate was incubated for another 2 hours at 37° C. After the plate was washed again, the peroxidase substrate solution (90 μl per well) containing 2 mM 2,2'-azinobis(3-ethyl-benzthiazoline-6-sulfonic acid), 2.5 mM hydrogen peroxide, and 50 mM citrate buffer, with a final pH of 5.0, was added. The reaction was incubated at room temperature for 15-20 minutes, and terminated by adding 20 μl of 5% SDS to each well. The absorbance at 415 nm was measured by a microtiter plate reader. Rabbit serum taken before immunization was used as a control in all the assays, from which the absorbance values obtained served as a blank for the correction of experimental data.
Referring to FIG. 3, the affinity-purified antibodies were preincubated with individual multivalent ions at indicated concentrations for 30 minutes at room temperature before added to the (1,4,5)IP3 immobilized EIA plates. […] The assay for the binding inhibition was the same as that described for the ELISA in the Experimental Procedures. Percentage maximal antibody binding is expressed by B/Bo, where B=absorbance with inhibitor and Bo =absorbance without inhibitor. Each data point represents the means of three determinations.

[2] = system: IP3 -C5 -BSA induced antibodies (anti-Ins(1,4,5)P3 antiserum); test: Competitive ELISA: immobilized Ins(1,4,5)P3 vs competitor, IP3-C5-BSA induced antiserum; format: binding, New Zealand White rabbit; conditions: for IC50: competitive ELISA, read-out: [Competitor] (M) at half maximal absorbance (B/Bo = 0.5) or IC50
Procedure: (§2) New Zealand White female rabbits were immunized with 1 mg of the IP3 -BSA conjugate in 0.5 ml of saline emulsified with an equal volume of Freund's complete adjuvant by five to six subcutaneous injections at the back and both flanks. Booster injections were given with the same amounts of the IP3 -BSA prepared with incomplete Freund's adjuvant at monthly intervals. After the second boost, the animals were bled from the ear vein 2 weeks after each booster injection. The antisera thus prepared were stored at -20° C. until used.
as §1
(§3) The avidity and specificity of these antisera were examined by competitive ELISA experiments between immobilized Ins(1,4,5)P3 and various inositol phosphates.
(§4) Table 1 Avidity of antisera toward various inositol phosphates and
(§5) PIP2. The avidity is expressed as the concentrations at halfmaximal
(§6) absorbance (B/Bo = 0.5) in the competitive ELISA experiments.

[3] = system: IP3 -C6 -NC5 -BSA induced antibodies (anti-Ins(1,4,5)P3 antiserum); test: Competitive ELISA: immobilized Ins(1,4,5)P3 vs competitor, IP3-C6NC5-BSA induced antiserum; format: binding, New Zealand White rabbit; conditions: for IC50: IP3-C6-NC5-BSA induced antibodies, competitive ELISA, read-out: [Competitor] (M) at half maximal absorbance (B/Bo = 0.5) or IC50
Procedure: as §2, §1, §3, §4, §5, §6

[4] = system: affinity-purified Ins(1,4,5)P3-specific antibodies (from IP3 -C5 -BSA induced antiserum); test: Competitive ELISA with affinity-purified Ins(1,4,5)P3-specific antibodies and inositol phosphates; format: binding, New Zealand White rabbit
Procedure: as §1
The antiserum (5.2 ml) was applied to an ECONO-PAC ™ protein A cartridge (5 ml, Bio-Rad) equilibrated with 100 mM Tris/HCl, pH 8.0. The column was washed with, in sequence, 20 ml of the equilibrating buffer, and 25 ml of 10 mM Tris/HCl, pH 8.0. The bound IgG was eluted with 25 ml of 100 mM glycine buffer, pH 3.0, at a flow rate of 0.5 ml/min. Fractions of 1.7 ml were collected in tubes containing 100 μl of 1M Tris/HCl, pH 8.0.
The dialyzed solution from step 1 was applied to a Ins(1,4,5)IP3 -agarose column (5.8 ml bed volume) equilibrated with 10 mM Tris/HCl, pH 7.5. The column was washed with the equilibration buffer followed by 500 mM NaCl in the same buffer. The absorbed proteins were eluted with, in sequence, 50 ml of 100 mM glycine buffer, pH 3.5, 10 ml of 10 mM Tris/HCl, pH 8.8, and 50 ml of 100 mM NaHCO3 /Na2 CO3 buffer, pH 10.5 Fractions of 1.7 ml were collected. For the eluate with the glycine buffer and with the NaHCO3 /Na2 /CO3 buffer, fractions were collected in tubes containing 100 μl of 1M Tris/HCl, pH 8.0, and 700 μl of 1M Tris/HCl, pH 7.6, respectively.
Referring to FIG. 2, the displacement curves were generated from competitive ELISA experiments between immobilized (1,4,5)IP3 and various inositol phosphates shown in the insert. The antibodies were preincubated with individual competitors at various concentrations for 30 minutes at room temperature before added to the (1,4,5)IP3 immobilized EIA plates. The assay for the competitive binding was the same as that described for the ELISA under "Experimental Procedures". Percentage total specific binding is expressed by B/Bo, where B=absorbance with competitor and Bo =absorbance without competitor. Each data point represents the means of three determinations. For clarity, the standard deviations were not shown.

[5] = system: Ins(1,4,5)P3 receptors; conditions: Wilcox et al. 1993, cited from earlier work; for IC50: read-out: IC50 for displacing [3H]Ins(1,4,5)P3 binding from Ins(1,4,5)P3 receptors

Row | Compound | inhibition of / interference with antibody binding to immobilized Ins(1,4,5)P3 [1] | IC50 ([2]; IP3-C5-BSA induced antibodies) | IC50 [3] | lower affinity relative to Ins(1,4,5)P3 ([3]; both antiserum preparations) | other results
1 | N.N.O=S(=O)(O)O [(NH4)2 SO4] |  |  |  |  | binding capability of antibodies after (NH4)2SO4 precipitation ([1]; even after extensive dialysis): complete loss of binding capability
2 | Nc1ncnc2c1ncn2[C@@H]1O[C@H](COP(=O)(O)OP(=O)(O)OP(=O)(O)O)[C@@H](O)[C@H]1O [ATP^4 -] | could be disrupted |  |  |  | IC50 [1]: 210 µM
3 | Cl [C1-] | no appreciable interference |  |  |  | 
4 | O=P(O)(O)O [HPO4^2 -] | could be disrupted |  |  |  | IC50 [1]: 2610 µM
5 | O=P(O)(O)O[C@H]1[C@H](OP(=O)(O)O)[C@@H](OP(=O)(O)O)[C@H](OP(=O)(O)O)[C@@H](OP(=O)(O)O)[C@H]1OP(=O)(O)O [IP6, Phytic acid] |  | 0.0008 M | 0.00015 M | two to four orders of magnitude | 
6 | O=P(O)(O)OC1[C@H](O)[C@H](O)C(O)[C@H](O)[C@H]1O (stereo partly shown) [Ins(1)P1] |  |  | 0.00042 M | two to four orders of magnitude | 
7 | O=P(O)(O)O[C@H]1[C@H](OP(=O)(O)O)[C@@H](OP(=O)(O)O)[C@H](O)[C@@H](O)[C@H]1OP(=O)(O)O [Ins(1,2,5,6)P4] |  | 7.1e-05 M | 2.1e-05 M | two to four orders of magnitude | 
8 | O=P(O)(O)O[C@H]1[C@H](O)[C@@H](O)[C@H](OP(=O)(O)O)[C@@H](OP(=O)(O)O)[C@H]1O [Ins(1,3,4)P3] |  | 1e-05 M | 1.7e-06 M | two to four orders of magnitude | decrease in affinity compared with IP3-C6NC5-BSA induced antiserum ([2]; IP3-C5-BSA induced antibodies): 10 fold; IC50 [4]: 39 µM; IC50 relative to that of Ins(1,4,5)P3 [4]: three orders or magnitude higher
9 | O=P(O)(O)O[C@H]1[C@H](O)[C@@H](OP(=O)(O)O)[C@H](OP(=O)(O)O)[C@@H](OP(=O)(O)O)[C@H]1O [Ins(1,3,4,5)P4] |  | 7.1e-08 M | 2e-07 M |  | binding compared with IP3-C6NC5-BSA induced antiserum ([2]; IP3-C5-BSA induced antibodies): stronger binding; ratio of IC50[Ins(1,3,4,5)P4] to IC50[Ins(1,4,5)P3] ([2]; antiserum against IP3-C5-BSA): 2.3; differential affinity, ratio of IC50 values before purification ([2]; antiserum before affinity purification): 2 fold; ratio of IC50[Ins(1,3,4,5)P4] to IC50[Ins(1,4,5)P3] ([3]; antiserum against IP3-C6NC5-BSA): 2.2; affinity relative to Ins(1,4,5)P3 ([3]; both antiserum preparations): one-third of the affinity; IC50 [4]: 0.73 µM; differential affinity, ratio of IC50 values Ins(1,3,4,5)P4 / Ins(1,4,5)P3 [4]: 60 fold; weaker than Ins(1,4,5)P3 at displacing specific [3H]Ins(1,4,5)P3 binding [5]: about 40 fold; IC50 [5]: 0.762 µM
10 | O=P(O)(O)OC1C(O)C(OP(=O)(O)O)C(OP(=O)(O)O)C(OP(=O)(O)O)C1OP(=O)(O)O (stereo not shown) [Ins(1,3,4,5,6)P5] |  |  |  |  | IC50 [4]: 45 µM; IC50 relative to that of Ins(1,4,5)P3 [4]: three orders or magnitude higher
11 | O=P(O)(O)O[C@@H]1[C@H](O)[C@H](O)[C@@H](OP(=O)(O)O)[C@H](OP(=O)(O)O)[C@H]1O [Ins(1,4,5)P3, D-myo-inositol 1,4,5-trisphosphate] |  | 3.1e-08 M | 8.9e-08 M |  | binding compared with IP3-C6NC5-BSA induced antiserum ([2]; IP3-C5-BSA induced antibodies): stronger binding; IC50 [4]: 0.012 µM; IC50 [5]: 0.0207 µM
12 | O=P(O)(O)O[C@H]1[C@H](OP(=O)(O)O)[C@H](O)[C@H](O)[C@@H](O)[C@@H]1OP(=O)(O)O [Ins(1,5,6)P3] |  |  |  | two to four orders of magnitude | order of affinity toward various inositol phosphates ([3]; IP3-C6NC5-BSA induced antiserum): Ins(3,4,5,6)P4 >Ins(1,5,6)P3, PIP2, Ins(1,2,5,6)P4 >Ins(4,5)P2
13 | O=P(O)(O)O[C@H]1[C@H](OP(=O)(O)O)[C@@H](OP(=O)(O)O)[C@@H](O)[C@@H](O)[C@@H]1OP(=O)(O)O [Ins(3,4,5,6)P4] |  | 6.3e-06 M | 4.5e-06 M | two to four orders of magnitude | 
14 | O=P(O)(O)O[C@@H]1[C@@H](O)[C@H](O)[C@H](O)[C@H](O)[C@H]1OP(=O)(O)O [Ins(4,5)P2] |  | 2.5e-05 M | 3.8e-05 M | two to four orders of magnitude | IC50 [4]: 14 µM; IC50 relative to that of Ins(1,4,5)P3 [4]: three orders or magnitude higher
15 | [K+] [K+] | did not affect the binding |  |  |  | inhibition of antibody recognition by cations [1]: did not cause significant inhibition
16 | [N-]=[N+]=[N-] [N3 -] | no appreciable interference |  |  |  | 
17 | N [NH4 +] |  |  |  |  | inhibition of antibody recognition by cations [1]: did not cause significant inhibition
18 | [Na+] [Na+] | no inhibiting effect; also recorded: did not affect the binding |  |  |  | inhibition of antibody recognition by cations [1]: did not cause significant inhibition
19 | O=S(=O)(O)O [SO4^2 -] | could be disrupted |  |  |  | IC50 [1]: 11600 µM
20 | NC(CO)(CO)CO [Tris] |  |  |  |  | inhibition of antibody recognition by cations [1]: did not cause significant inhibition
21 | PIP2 |  | 3.2e-05 M | 1.6e-05 M | two to four orders of magnitude | IC50 [4]: 14 µM; IC50 relative to that of Ins(1,4,5)P3 [4]: three orders or magnitude higher
22 | heparin |  |  |  |  | interference with antibody binding to immobilized Ins(1,4,5)P3 [1]: not affected; interference with antibody binding to immobilized Ins(1,4,5)P3 ([1]; listed as haparin): no appreciable interference
